# Measured values taken from patent US11642333B2, “Inhalable formulation of a solution containing vilanterol trifenatate and umeclidinium bromide” (ANOVENT PHARMACEUTICAL (U.S.), LLC, priority 2019, dated 2023).
# Assays:
# [1] = Content of umeclidinium bromide and vilanterol trifenatate in the inhalation solutions (tested results); assay type: physicochemical
# Description: 50% benzalkonium chloride and tween-80 according to table 1, were dissolved in 16 g of 95% ethanol for three times, and then transferred into 100 ml volumetric flask. […] Finally, the flask was made to volume with purified water.
# 50% benzalkonium chloride and tween-80 according to table 3, were dissolved in 95% ethanol according to table 3 for three times, and then transferred into 100 ml volumetric flask. […] Finally, the flask was made to volume with purified water.
# 50% benzalkonium chloride and tween-80 according to table 5, were dissolved in 95% ethanol according to table 5 for three times, and then transferred into 100 ml volumetric flask. […] Finally, the flask was made to volume with purified water.
# [2] = in vivo; cited from earlier work
structure (smiles),measurement,setting,value
"OC(c1ccccc1)(c1ccccc1)C12CC[N+](CCOCc3ccccc3)(CC1)CC2.[Br-] [Umeclidinium bromide, 1-[2-(Benzyloxy)ethyl]-4-(hydroxydiphenylmethyl)-1-azoniabicyclo [2.2.2] octane bromide]",Dissolution in the solution containing ethanol and tween-80,[1]; sample I and sample II (table 2),completely dissolved
same,Dissolution in the solution containing ethanol and tween-80,"[1]; sample III, sample IV and sample V (table 4)",completely dissolved
same,Dissolution in the solution containing ethanol and tween-80,"[1]; sample VI, sample VII and sample VIII (table 6)",completely dissolved
same,oral bioavailability,[2],poor
